The results in this text go back to patent US8273768B2, “Iso CA-4 and analogues thereof as potent cytotoxic agents inhibiting tubuline polymerization” (Centre National de la Recherche Scientifique (CNRS), priority 2007, dated 2012).

The subject of assay [1] is K562. As to the kind of experiment: Study of cytotoxicity (CellTiter-Blue, 72 hours). The format is cell-based. The settings on record: Homo sapiens, 72 hours of incubation, read-out: IC50 for different cell lines: K562. The method, then: (§1) The biological activity of the compounds of the invention was studied in vitro on 7 human cancer cell lines with different tissue origins (HCT116: colorectal carcinoma; K562: chronic myeloid leukemia; B16-F10: melanoma; U87: glioblastoma; A549: lung cancer and MDA-MB 231 and MDA-MB 435: breast cancer). The cells selected for the study were incubated at 37° C. in the presence of one of the compounds added into the culture medium at different concentrations. The whole of the conducted experiments allowed determination of the toxicity level of the tested compound, its effect on the course of the cell cycle as well as its capacity of inducing cell death by apoptosis.
(§2) The cancer cell lines originate from the American Type Culture Collection (Rockville, Md., USA) and were grown according to the recommendations of the supplier.
(§3) The cells A549, U87, MDA-MB231, MDA-MB435 and B16F10 were grown in a culture medium “Dulbecco minimal essential medium” (DMEM) containing 4.5 g/L of glucose and supplemented with 10% fetal calf serum and 1% glutamine. The K562 and HCT116 were grown in an RPMI 1640 medium containing 10% fetal calf serum and 1% glutamine. All the cell lines were maintained in the culture at 37° C. in a humid atmosphere containing 5% of CO2. Cell viability was evaluated by using the reagent “CellTiter-Blue™” (Promega, Wis., USA) while observing the instructions of the manufacturer. The cells were sown in 96-well culture plates with 5000 cells per well in 50 μL of culture medium. After 24 hours of culture, the compounds of general formula (I) dissolved in DMSO were individually added into each of the wells in an amount of 50 μl per well. All the compounds were tested in triplicate for each defined concentration and each experiment was repeated three times. After 72 hours of incubation, 20 μL of resazurin were added in each well. After 2 hours of incubation, the emitted fluorescence was measured at 590 nm after excitation at 560 nm by means of a fluorescence reader of the Victor type (Perkin-Elmer, USA).
(§4) The concentration of each of the compounds which induces the death of 50% of the cells (IC50) was determined after 72 hours of incubation. Certain compounds according to the invention have an IC50 of the order of one nanomolar concentration, therefore equivalent to CA-4 taken as a reference.
On the technique in general: The colour change of resazurin is a common sign of viable cells or microbes.

Assay [2] concerns U87. As to the kind of experiment: Study of cytotoxicity (CellTiter-Blue, 72 hours). The format is cell-based. The settings on record: Homo sapiens, U-87 MG; 72 hours of incubation; read-out: IC50 for different cell lines: U87. The procedure: as §1, §2, §3, §4
Assay [3] concerns MDA-MB 231. Kind of assay: Study of cytotoxicity (CellTiter-Blue, 72 hours). The format is cell-based. To be noted: Homo sapiens, MDA-MB-231; 72 hours of incubation; read-out: IC50 for different cell lines: M231. The method, then: as §1, §2, §3, §4
Assay [4] relates to HCT116. As to the kind of experiment: Study of cytotoxicity (CellTiter-Blue, 72 hours). In kind it is cell-based. To be noted: Homo sapiens, HCT-116; 72 hours of incubation; read-out: IC50 for different cell lines: HCT116. The method, then:
as §1, §2, §3, §4

The test system of assay [5] is MDA-MB 435. Kind of assay: Study of cytotoxicity (CellTiter-Blue, 72 hours). In kind it is cell-based. To be noted: Homo sapiens, MDA-MB-435; 72 hours of incubation; read-out: IC50 for different cell lines: M435. The method, then:
as §1, §2, §3, §4

Assay [6] concerns A549. As to the kind of experiment: Study of cytotoxicity (CellTiter-Blue, 72 hours). In kind it is cell-based. The settings on record: Homo sapiens, A549; 72 hours of incubation; read-out: IC50 for different cell lines: A549. The procedure: as §1, §2, §3, §4
The test system of assay [7] is MDA-MB231 cells. As to the kind of experiment: Study of the cell cycle (flow cytometry). The format is cell-based, human. To be noted: MDA-MB231, 24 hours, 5 nM. The procedure:
(§5) The K562 and MDA-MB231 cells are sown in 6-well culture plates with 300,000 cells per well in their respective media as described above. After 24 hours of culture, the compound (I-1) was added in each of the wells at different concentrations. After 24 hours of incubation, the cells are collected individually in 15 mL tubes and then centrifuged. The cells are then washed twice in cold PBS and then re-suspended in 1 mL of PBS, fixed by adding 2 mL of cold absolute ethanol and placed at 4° C. for 1 hour. After centrifugation, the cells are washed twice in PBS and then the cell pellet is taken up in 100 μL of Triton X100 at 1%. After 30 minutes of incubation at room temperature, 50 μL of RNase A boiled beforehand (1 mg/mL) and 500 μL of propidium iodide (50 μg/mL) are added into each tube and incubated in the dark at room temperature for 30 minutes. The distribution of the number of cells in each of the phases of the cell cycle is then determined by flow cytometry with a cytometer of the FC500 type (Beckman-Coulter, France).
(§6) This effect is significant after 24 hours of exposure of the cells to the compound (I-1) used at a concentration of 5 nM (FIG. 1).
In general terms: In flow cytometry, cells or beads pass a laser one at a time.

Assay [8] relates to K562 cells. Kind of assay: Study of the cell cycle (flow cytometry). In kind it is cell-based, human. The settings on record: K562, 24 hours, 5 nM. The procedure:
as §5, §6

In assay [9] the target is T1, purified tubulin from pig brains (Sus scrofa, UniProt P02550+P02554).
T1 construct: from pig brains, where it forms 20-25% of the soluble proteins; from tissue; host or cells: pig brain
T1 sequence (P02554 whole entry): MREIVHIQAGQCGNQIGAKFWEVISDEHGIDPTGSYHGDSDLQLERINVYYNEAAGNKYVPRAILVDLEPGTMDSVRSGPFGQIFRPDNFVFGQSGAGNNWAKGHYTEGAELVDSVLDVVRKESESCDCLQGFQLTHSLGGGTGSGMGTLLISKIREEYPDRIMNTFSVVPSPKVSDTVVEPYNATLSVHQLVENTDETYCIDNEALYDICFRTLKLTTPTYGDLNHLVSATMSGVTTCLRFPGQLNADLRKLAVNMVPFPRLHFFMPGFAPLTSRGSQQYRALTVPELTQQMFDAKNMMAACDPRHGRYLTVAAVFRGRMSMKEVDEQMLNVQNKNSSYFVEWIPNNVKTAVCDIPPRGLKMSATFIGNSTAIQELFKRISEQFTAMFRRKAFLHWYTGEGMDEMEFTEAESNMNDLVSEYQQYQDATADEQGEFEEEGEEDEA
T1 sequence (P02550 whole entry): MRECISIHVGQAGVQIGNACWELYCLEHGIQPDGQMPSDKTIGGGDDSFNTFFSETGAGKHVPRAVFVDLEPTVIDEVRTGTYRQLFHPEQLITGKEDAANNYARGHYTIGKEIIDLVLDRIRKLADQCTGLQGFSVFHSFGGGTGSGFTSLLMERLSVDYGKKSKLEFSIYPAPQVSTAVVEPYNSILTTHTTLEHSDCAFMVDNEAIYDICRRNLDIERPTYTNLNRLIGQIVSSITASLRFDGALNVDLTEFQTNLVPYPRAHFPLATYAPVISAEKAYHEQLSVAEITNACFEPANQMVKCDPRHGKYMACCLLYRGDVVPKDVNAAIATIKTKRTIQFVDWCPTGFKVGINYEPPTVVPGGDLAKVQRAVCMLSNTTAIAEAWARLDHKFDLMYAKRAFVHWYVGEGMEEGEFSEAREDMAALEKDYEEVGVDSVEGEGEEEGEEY
Kind of assay: Inhibition of polymerization of tubulin (turbidimetry). The format is biochemical. The settings on record: pig brain tubulin, turbidimetry at 350 nm. The method, then:
Tests relating to the inhibition of polymerization of tubulin were carried out on compounds which had the best cytotoxic activities. These tests were carried out on purified tubulin by the Shelanski method (Shelanski, M. C.; Gaskin, F.; Cantor, C. R. Proc. Natl. Acad. Sci. USA, 1973, 70, 765-768) from pig brains, where it forms 20-25% of the soluble proteins. Purification method is based on temperature-dependent assembling-disassembling cycles. Polymerization of tubulin was tracked with turbidimetry according to the Gaskin method (Gaskin, F.; Cantor, C. R.; Shelanski, M. L. J. Bio. Mol. 1974, 89, 737) at a wavelength of 350 nm. The different samples were dissolved in DMSO and incubated for 10 minutes at 37° C. and then for 5 minutes at 0° C.
The CA-4 compound and DMSO were taken as references.
The tests have shown for these compounds an activity inhibiting polymerization of tubulin similar to the one of the reference compound CA-4 (of the order of only one micromolar concentration to a few tens of micromolar concentrations).

The term IC50 denotes the concentration needed to halve the response being measured. With `C=C(c1ccc(OC)c(O)c1)c1cc(OC)c(OC)c(OC)c1` [(I-1)], the IC50 is 5 nM in [1]; 8 nM in assay [2]; 4 nM in assay [3]; 2 to 4 nM in [4]; 4.5 nM in assay [5]; 8 nM in [6]. For the same compound, 2200 nM corresponded to half-maximal inhibition in assay [9] (IC50). Also, the “Effect on cell cycle” value in [7] and in [8] was “blocks cell division in the G2/M phase” throughout.
